Data taken from patent publication US9512128B2 (BAYER CROPSCIENCE AG, priority 2012, dated 2016).
Read-outs that look alike come from different tables or passages of the source.

Experiment: log P by HPLC on reversed-phase columns (C 18), EEC directive 79/831 Annex V.A8
Type: physicochemical
Conditions: for logP[a]: method [a]; for logP[b]: method [b]
Protocol: The log P values were determined according to EEC directive 79/831 Annex V.A8 by HPLC (High Performance Liquid Chromatography) on reversed-phase columns (C 18), using the methods below:
[a] The LC-MS determination in the acidic range is carried out at pH 2.7 with 0.1% aqueous formic acid and acetonitrile (contains 0.1% formic acid) as mobile phases; linear gradient from 10% acetonitrile to 95% acetonitrile.
[b] The LC-MS determination in the neutral range is carried out at pH 7.8 using the mobile phases 0.001 molar aqueous ammonium bicarbonate solution and acetonitrile; linear gradient from 10% acetonitrile to 95% acetonitrile.

[1] = reversed-phase C18 HPLC column, pH 2.7, acidic range, pH 2.7, 0.1% aqueous formic acid / acetonitrile, read-out: log P[a]
[2] = reversed-phase C18 HPLC column, pH 7.8, neutral range, pH 7.8, 0.001 molar aqueous ammonium bicarbonate / acetonitrile, read-out: log P[b]
[3] = acidic range, pH 2.7, 0.1% aqueous formic acid / acetonitrile, read-out: log P[a]
[4] = neutral range, pH 7.8, 0.001 molar aqueous ammonium bicarbonate / acetonitrile, read-out: log P[b]

| SMILES | chromatographic logP [1] | chromatographic logP [2] | logP[a] | logP[b] | further results |
| --- | --- | --- | --- | --- | --- |
| Nc1cc(SSc2cc(N)c(Cl)cc2Cl)c(Cl)cc1Cl [XVIII-6, 3,3′-Disulphanediylbis(4,6-dichloroaniline)] | 5.14 | 4.95 |  |  |  |
| Cc1cc(C)c([S+]([O-])CC(F)(F)F)cc1-n1cnc2c(cnn2C)c1=O (racemic) [Compound 9] |  |  | 1.74 | 1.74 |  |
| O=c1c2ccsc2ncn1-c1ccc(C(F)(F)F)c([S+]([O-])CC(F)(F)F)c1 (centres unmarked) [Compound 99] |  |  | 2.54 | 2.51 |  |
| O=[N+]([O-])c1ccc(Cl)c(SSc2cc([N+](=O)[O-])ccc2Cl)c1 [XIX-3, 1,1′-Disulphanediylbis(2-chloro-5-nitrobenzene)] |  |  |  |  | chromatographic logP [3]: 5.03; chromatographic logP [4]: 5.01 |
| O=c1c2sccc2ncn1-c1ccc(C(F)(F)F)c([S+]([O-])CC(F)(F)F)c1 (centres unmarked) [Compound 107] |  |  | 2.44 | 2.40 |  |
| FC(F)(F)CSc1cc(Br)c(Cl)cc1Cl [VIIa-6, 1-Bromo-2,4-dichloro-5-[(2,2,2-trifluoroethyl)sulphanyl]benzene] | 4.8 | 4.77 |  |  |  |
| O=[N+]([O-])c1cc(SSc2cc([N+](=O)[O-])c(Cl)cc2Cl)c(Cl)cc1Cl [XIX-6, 1,1′-Disulphanediylbis(2,4-dichloro-5-nitrobenzene)] |  |  |  |  | chromatographic logP [3]: 5.69; chromatographic logP [4]: 5.64 |
| Nc1cc(SSc2ccc(F)c(N)c2)ccc1F [XVIII-5, 3,3′-Disulphanediylbis(6-fluoroaniline)] | 2.98 | 2.97 |  |  |  |
| Nc1ccc(Cl)c(S)c1 [XVI-3, 5-Amino-2-chlorobenzenethiol] | 1.64 |  |  |  |  |
| Cc1cc(C)c(-n2c(C)nc3c(ncn3C)c2=O)cc1SCC(F)(F)F [Compound 56] |  |  | 2.36 | 2.35 |  |
| Cc1cc(F)c(I)cc1SCC(F)(F)F [VIIa-1-I, 1-Fluoro-2-iodo-5-methyl-4-[(2,2,2-trifluoroethyl)sulphanyl]benzene] | 4.44 | 4.44 |  |  |  |
| FC(F)(F)CSc1cc(Br)ccc1C(F)(F)F [VIIa-10, 4-Bromo-2-[(2,2,2-trifluoroethyl)sulphanyl]-1-(trifluoromethyl)benzene] | 4.22 | 4.2 |  |  |  |
| Cc1ccc(B2OC(C)(C)C(C)(C)O2)cc1SCC(F)(F)F [4,4,5,5-Tetramethyl-2-{4-methyl-3-[(2,2,2-trifluoroethyl)sulphanyl]phenyl}-1,3,2-dioxaborolane] | 3.73 | 3.74 |  |  |  |
| Cc1cc(F)c(-n2cnc3ccsc3c2=O)cc1SCC(F)(F)F [Compound 109] |  |  | 3.50 | 3.42 |  |
| Cc1cc(C)c(-n2cnc3scnc3c2=O)cc1SCC(F)(F)F [Compound 62] |  |  | 2.67 | 2.64 |  |
| O=[N+]([O-])c1cc(SSc2ccc(F)c([N+](=O)[O-])c2)ccc1F [XIX-5, 1,1′-Disulphanediylbis(4-fluoro-3-nitrobenzene)] |  |  |  |  | chromatographic logP [3]: 3.83; chromatographic logP [4]: 3.79 |
| Cc1cc(F)c(NC(=O)c2cnn(C)c2[N+](=O)[O-])cc1SCC(F)(F)F [N-{2-Fluoro-4-methyl-5-[(2,2,2-trifluoroethyl)sulphanyl]phenyl}-1-methyl-5-nitro-1H-pyrazole-4-carboxamide] | 3.22 | 3.16 |  |  |  |
| Nc1cc(SCC(F)(F)F)c(Cl)cc1F [IVa-2, 4-Chloro-2-fluoro-5-[(2,2,2-trifluoroethyl)sulphanyl]aniline] | 3.02 | 3 |  |  |  |
| Cc1c2c(=O)n(-c3ccc(Cl)c(SCC(F)(F)F)c3)cnc2nn1C [Compound 48] |  |  | 2.45 | 2.36 |  |
| O=c1c2ccsc2ncn1-c1ccc(Cl)c(SCC(F)(F)F)c1 [Compound 85] |  |  | 3.09 | 3.03 |  |
| O=c1c2scnc2ncn1-c1cc([S+]([O-])CC(F)(F)F)c(Cl)cc1Cl (centres unmarked) [Compound 80] |  |  | 2.01 | 1.98 |  |
| CC(=O)Nc1cc(SC(C)=O)c(C)cc1F [XVII-1, S-(5-Acetamido-4-fluoro-2-methylphenyl)ethanethioate] | 1.78 |  |  |  |  |
| Cc1ccc(NC(=O)C(F)(F)F)c(F)c1 [XIII-1, 2,2,2-Trifluoro-N-(2-fluoro-4-methylphenyl)acetamide] | 2.4 |  |  |  |  |

| SMILES | chromatographic logP [1] | chromatographic logP [2] | logP[a] | logP[b] | further results |
| --- | --- | --- | --- | --- | --- |
| O=C(Nc1ccc(Cl)c(SCC(F)(F)F)c1)C(F)(F)F [Compound X-3, N-{4-Chloro-3-[(2,2,2-trifluoroethyl)sulphanyl]phenyl}-2,2,2-trifluoroacetamide] | 3.46 | 3.41 |  |  |  |
| Cc1cc(F)c(NC(=O)C(F)(F)F)cc1SSc1cc(NC(=O)C(F)(F)F)c(F)cc1C [XI-1, N,N′-[Disulphanediylbis(6-fluoro-4-methylbenzene-3,1-diyl)]bis(2,2,2-trifluoroacetamide)] | 4.41 |  |  |  |  |
| Cn1ncc2c(=O)n(-c3ccc(Cl)c([S+]([O-])CC(F)(F)F)c3)cnc21 (racemic) [Compound 28] |  |  | 1.80 | 1.80 |  |
| Cc1cc(F)c(B(O)O)cc1SCC(F)(F)F [VIIIa-1, {2-Fluoro-4-methyl-5-[(2,2,2-trifluoroethyl)sulphanyl]phenyl}boronic acid] | 2.34 | 2.41 |  |  |  |
| O=c1c2sccc2ncn1-c1ccc(C(F)(F)F)c(SCC(F)(F)F)c1 [Compound 104] |  |  | 3.09 | 3.07 |  |
| Cc1cc(C)c([S+]([O-])CC(F)(F)F)cc1-n1cnc2ncsc2c1=O (centres unmarked) [Compound 81] |  |  | 1.65 | 1.62 |  |
| Cc1nc2c(cnn2C)c(=O)n1-c1cc(SCC(F)(F)F)c(Cl)cc1Cl [Compound 5] |  |  | 3.18 | 3.11 |  |
| O=c1c2sccc2ncn1-c1ccc(Cl)c(SCC(F)(F)F)c1 [Compound 103] |  |  | 2.90 | 2.84 |  |
| Cc1nc2c(=O)n(-c3cc(SCC(F)(F)F)c(Cl)cc3Cl)cnc2s1 [Compound 71] |  |  | 3.09 | 3.02 |  |
| Cn1ncc2c(=O)n(-c3ccc(Cl)c(SCC(F)(F)F)c3)cnc21 [Compound 23] |  |  | 2.58 | 2.53 |  |
| Cc1cc(F)c(-n2cnc3c(Cl)c(Cl)sc3c2=O)cc1SCC(F)(F)F [Compound 111] |  |  | 4.38 | 4.24 |  |
| O=c1c2ccsc2ncn1-c1cc(SCC(F)(F)F)c(Cl)cc1Cl [Compound 90] |  |  | 3.51 | 3.42 |  |
| O=C(Nc1cc(SCC(F)(F)F)c(Cl)cc1F)C(F)(F)F [Compound X-2, N-{4-Chloro-2-fluoro-5-[(2,2,2-trifluoroethyl)sulphanyl]phenyl}-2,2,2-trifluoroacetamide] | 3.34 | 3.14 |  |  |  |
| Cc1cc(C)c([S+]([O-])CC(F)(F)F)cc1-n1cnc2c(ncn2C)c1=O (racemic) [Compound 58] |  |  | 1.43 | 1.40 |  |
| O=c1c2scnc2ncn1-c1cc(SCC(F)(F)F)c(Cl)cc1Cl [Compound 77] |  |  | 2.79 | 2.76 |  |
| Nc1cc(SCC(F)(F)F)ccc1Cl [IVa-4, 2-Chloro-5-[(2,2,2-trifluoroethyl)sulphanyl]aniline] | 3 | 2.95 |  |  |  |
| N#Cc1ccc(Br)cc1SCC(F)(F)F [VIIa-9, 4-Bromo-2-[(2,2,2-trifluoroethyl)sulphanyl]benzonitrile] | 3.21 | 3.16 |  |  |  |
| Cc1cc(F)c(N)cc1[S+]([O-])CC(F)(F)F (centres unmarked) [IVb-1, 2-Fluoro-4-methyl-5-[(2,2,2-trifluoroethyl)sulphinyl]aniline] | 1.77 | 1.72 |  |  |  |
| Nc1cc(SSc2ccc(Cl)c(N)c2)ccc1Cl [XVIII-4, 3,3′-Disulphanediylbis(6-chloroaniline)] | 3.84 | 3.83 |  |  |  |
| Cn1ncc2c(=O)n(-c3cc(SCC(F)(F)F)c(Cl)cc3Cl)cnc21 [Compound 3] |  |  | 2.94 | 2.94 |  |
| Cc1cc(F)c(Br)cc1SCC(F)(F)F [VIIa-1, 1-Bromo-2-fluoro-4-methyl-5-[(2,2,2-trifluoroethyl)sulphanyl]benzene] | 4.3 | 4.34 |  |  |  |
| Cc1cc(C)c([S+]([O-])CC(F)(F)F)cc1-n1c(C)nc2c(ncn2C)c1=O (racemic) [Compound 59] |  |  | 1.52 | 1.50 |  |
